# Source: patent US20070167526A1, “Topical mecamylamine formulations for ocular administration and uses thereof” (priority 2005, published 2007)
# Read-outs that look alike come from different tables or passages of the source.
# Key:
# [1] = Ocular bioavailability following topical ocular administration of 2% isotonic or in situ gel-forming solution (Examples 5, 6); assay type: in vivo, New Zealand White rabbit; details: rabbit
# Description: The objective of this study was to determine the pharmacokinetics of mecamylamine, administered either as an isotonic solution (prepared as in Example 3) or in situ gel-forming solution (as prepared in Example 4), in the plasma, vitreous humor and retina of the eyes when applied topically to the surface of the eye.
# The study comprised 2 groups (N=4/group; 8 rabbits total) of male NZW rabbits each weighing approximately 2-3 kg and obtained from Kralek Farms (Turlock, Calif.). […] For both groups, samples of the vitreous(≧0.1 ml) were withdrawn at 6 time points (one withdrawal per eye): pre-dose, 30 min, 1 (sacrifice), 3, 6, 12, and 24 (sacrifice) hr. At all time points, only duplicate vitreous fluid samples (each coming from different eye from different animals) were collected in order to minimize pain and damage to rabbit eyes.
# Blood for plasma(≧0.5 ml) and intra-vitreal fluid (˜0.1 ml) were collected at 0, 30, 60 min from each animal with sacrifice for 2 animals/group at 60 minutes. […]
# A 0.5 mg/mL stock of mecamylamine hydrochloride USP in DMSO was prepared and used as the working standard to produce the calibration standards for quantification of the mecamylamine content in various samples collected as described above. […]
# Each tissue sample collected was weighed. […] The samples were analyzed using LC/MS/MS and quantified using the calibration standards prepared in plasma as described above.
# [2] = 6-hour ocular pharmacokinetics of 2% Mecamylamine GELRITE solution following topical instillation (Example 10); assay type: in vivo, New Zealand White rabbit; details: rabbit; for concentration at 1 h / concentration at 3 h / concentration at 6 h: female, New Zealand White, topical; for Mecamylamine concentration in blood Cell Fraction, Mean / Mecamylamine concentration in blood Plasma, Mean: Pre
# Procedure: The time of each dose administration was recorded. There was no mortality in the treatment group.
# [3] = cited from earlier work
smiles,measurement,setting,value
"CNC1(C)C2CCC(C2)C1(C)C (centres unmarked) [mecamylamine, N-2,3,3-tetramethylbicyclo(2.2.1)heptan-2-amine]","retinal/choroidal tissue:plasma ratio, topical compared to systemic administration",[1],at least 40 fold
same,levels of mecamylamine in erythrocytes (red blood cells) versus plasma,[1]; topical ocular,comparable
same,concentration at 1 h,"[2]; aqueous humor, 2% in GELRITE, 2 × 50 μL, OS (unilateral) treated eye, 1 hr, read-out: Mecamylamine concentration in Aqueous humor, Mean",2510 ng/g
same,concentration at 1 h,"[2]; aqueous humor, 2% in GELRITE, 2 × 50 μL, OU (bilateral), 1 hr, read-out: Mecamylamine concentration in Aqueous humor, Mean",3910 ng/g
same,concentration at 3 h,"[2]; aqueous humor, 2% in GELRITE, 2 × 50 μL, OU (bilateral), 3 hr, read-out: Mecamylamine concentration in Aqueous humor, Mean",500 ng/g
same,concentration at 6 h,"[2]; aqueous humor, 2% in GELRITE, 2 × 50 μL, OU (bilateral), 6 hr, read-out: Mecamylamine concentration in Aqueous humor, Mean",48.9 ng/g
same,concentration at 1 h,"[2]; aqueous humor, fellow (vehicle) eye of unilaterally dosed animals, 1 hr, read-out: Mecamylamine concentration in Aqueous humor, Mean",9.7 ng/g
same,concentration at 1 h,"[2]; blood cell fraction, group MEC OS 1 hr, Post, read-out: Mecamylamine concentration in blood Cell Fraction, Mean",15 ng/mL
same,concentration at 1 h,"[2]; blood cell fraction, group MEC OU 1 hr, Post, read-out: Mecamylamine concentration in blood Cell Fraction, Mean",33.1 ng/mL
same,concentration at 3 h,"[2]; blood cell fraction, group MEC OU 3 hr, Post, read-out: Mecamylamine concentration in blood Cell Fraction, Mean",7 ng/mL
same,concentration at 6 h,"[2]; blood cell fraction, group MEC OU 6 hr, Post, read-out: Mecamylamine concentration in blood Cell Fraction, Mean",1.2 ng/mL
same,concentration at 1 h,"[2]; choroid (treated eye), 2% in GELRITE, 2 × 50 μL, OS (unilateral) treated eye, 1 hr, read-out: Mecamylamine concentration in Choroid, Mean",~2800 ng/g
same,concentration at 1 h,"[2]; choroid of the fellow (vehicle) eye, fellow (vehicle) eye of unilaterally dosed animals, 1 hr, read-out: Mecamylamine concentration in Choroid, Mean",~700 ng/g
same,concentration at 1 h,"[2]; choroid, 2% in GELRITE, 2 × 50 μL, OU (bilateral), 1 hr, read-out: Mecamylamine concentration in Choroid, Mean",~14000 ng/g
same,concentration at 6 h,"[2]; choroid, 2% in GELRITE, 2 × 50 μL, OU (bilateral), 6 hr, read-out: Mecamylamine concentration in Choroid, Mean",~260 ng/g
same,concentration at 1 h,"[2]; cornea, 2% in GELRITE, 2 × 50 μL, OS (unilateral) treated eye, 1 hr, read-out: Mecamylamine concentration in Cornea, Mean",9600 ng/g
same,concentration at 1 h,"[2]; cornea, 2% in GELRITE, 2 × 50 μL, OU (bilateral), 1 hr, read-out: Mecamylamine concentration in Cornea, Mean",17900 ng/g
same,concentration at 3 h,"[2]; cornea, 2% in GELRITE, 2 × 50 μL, OU (bilateral), 3 hr, read-out: Mecamylamine concentration in Cornea, Mean",3820 ng/g
same,concentration at 6 h,"[2]; cornea, 2% in GELRITE, 2 × 50 μL, OU (bilateral), 6 hr, read-out: Mecamylamine concentration in Cornea, Mean",1230 ng/g
same,concentration at 1 h,"[2]; cornea, fellow (vehicle) eye of unilaterally dosed animals, 1 hr, read-out: Mecamylamine concentration in Cornea, Mean",652 ng/g
same,concentration at 1 h,"[2]; plasma, group MEC OS 1 hr, Post, read-out: Mecamylamine concentration in blood Plasma, Mean",16.3 ng/mL
same,concentration at 1 h,"[2]; plasma, group MEC OU 1 hr, Post, read-out: Mecamylamine concentration in blood Plasma, Mean",37.8 ng/mL
same,concentration at 3 h,"[2]; plasma, group MEC OU 3 hr, Post, read-out: Mecamylamine concentration in blood Plasma, Mean",8.3 ng/mL
same,concentration at 6 h,"[2]; plasma, group MEC OU 6 hr, Post, read-out: Mecamylamine concentration in blood Plasma, Mean",0.3 ng/mL
same,concentration at 1 h,"[2]; retina, 2% in GELRITE, 2 × 50 μL, OS (unilateral) treated eye, 1 hr, read-out: Mecamylamine concentration in Retina, Mean",4160 ng/g
same,concentration at 1 h,"[2]; retina, 2% in GELRITE, 2 × 50 μL, OU (bilateral), 1 hr, read-out: Mecamylamine concentration in Retina, Mean",14700 ng/g
same,concentration at 3 h,"[2]; retina, 2% in GELRITE, 2 × 50 μL, OU (bilateral), 3 hr, read-out: Mecamylamine concentration in Retina, Mean",563 ng/g
same,concentration at 6 h,"[2]; retina, 2% in GELRITE, 2 × 50 μL, OU (bilateral), 6 hr, read-out: Mecamylamine concentration in Retina, Mean",310 ng/g
same,concentration at 1 h,"[2]; retina, fellow (vehicle) eye of unilaterally dosed animals, 1 hr, read-out: Mecamylamine concentration in Retina, Mean",781 ng/g
same,concentration at 1 h,"[2]; vitreous humor, 2% in GELRITE, 2 × 50 μL, OS (unilateral) treated eye, 1 hr, read-out: Mecamylamine concentration in Vitreous humor, Mean",37.8 ng/g
same,concentration at 1 h,"[2]; vitreous humor, 2% in GELRITE, 2 × 50 μL, OU (bilateral), 1 hr, read-out: Mecamylamine concentration in Vitreous humor, Mean",131 ng/g
same,concentration at 3 h,"[2]; vitreous humor, 2% in GELRITE, 2 × 50 μL, OU (bilateral), 3 hr, read-out: Mecamylamine concentration in Vitreous humor, Mean",17.7 ng/g
same,concentration at 6 h,"[2]; vitreous humor, 2% in GELRITE, 2 × 50 μL, OU (bilateral), 6 hr, read-out: Mecamylamine concentration in Vitreous humor, Mean",5.9 ng/g
same,concentration at 1 h,"[2]; vitreous humor, fellow (vehicle) eye of unilaterally dosed animals, 1 hr, read-out: Mecamylamine concentration in Vitreous humor, Mean",10.4 ng/g
same,"Mecamylamine concentration in Choroid, Mean","[2]; 2% in GELRITE, 2 × 50 μL, OS (unilateral) treated eye, 1 hr, listed as MEC",2806.7 ng/g
same,"Mecamylamine concentration in Choroid, Mean","[2]; 2% in GELRITE, 2 × 50 μL, OU (bilateral), 1 hr, listed as MEC",14170.0 ng/g
same,"Mecamylamine concentration in Choroid, Mean","[2]; 2% in GELRITE, 2 × 50 μL, OU (bilateral), 3 hr",~500 ng/g
same,"Mecamylamine concentration in Choroid, Mean","[2]; 2% in GELRITE, 2 × 50 μL, OU (bilateral), 3 hr, listed as MEC",1086.0 ng/g
same,"Mecamylamine concentration in Choroid, Mean","[2]; 2% in GELRITE, 2 × 50 μL, OU (bilateral), 6 hr, listed as MEC",264.5 ng/g
same,Mean levels in the plasma and packed cells,"[2]; 2% in GELRITE, highest one hour after bilateral dosing",5 to 38 ng/mL
same,"Mecamylamine concentration in Choroid, Mean","[2]; fellow (vehicle) eye of unilaterally dosed animals, 1 hr, listed as MEC",705.7 ng/g
same,"Mecamylamine concentration in blood Cell Fraction, Mean",[2]; group MEC OS 1 hr,0.0 ng/mL
same,"Mecamylamine concentration in blood Plasma, Mean",[2]; group MEC OS 1 hr,0.0 ng/mL
same,"Mecamylamine concentration in blood Cell Fraction, Mean",[2]; group MEC OU 1 hr,0.0 ng/mL
same,"Mecamylamine concentration in blood Plasma, Mean",[2]; group MEC OU 1 hr,0.0 ng/mL
same,"Mecamylamine concentration in blood Cell Fraction, Mean",[2]; group MEC OU 3 hr,0.0 ng/mL
same,"Mecamylamine concentration in blood Plasma, Mean",[2]; group MEC OU 3 hr,0.0 ng/mL
same,"Mecamylamine concentration in blood Cell Fraction, Mean",[2]; group MEC OU 6 hr,0.0 ng/mL
same,"Mecamylamine concentration in blood Plasma, Mean",[2]; group MEC OU 6 hr,0.0 ng/mL
same,pka,[3],~11.2
